Measured values taken from patent US20260337184A1, “NOVEL SUBSTITUTED 2-CARBONYL-BENZOTHIOPHENE-6-CARBOXYLIC ACID DERIVATIVES, PROCESSES FOR THEIR PREPARATION AND THERAPEUTIC USES THEREOF” (SANOFI, priority 2022, published 2026).

Molecular target: T1, estrogen receptor (ERα) (Homo sapiens, UniProt P03372)
T1 construct: endogenous in cells; host or cells: MCF7 cells (ATCC)
T1 sequence (P03372 1-595): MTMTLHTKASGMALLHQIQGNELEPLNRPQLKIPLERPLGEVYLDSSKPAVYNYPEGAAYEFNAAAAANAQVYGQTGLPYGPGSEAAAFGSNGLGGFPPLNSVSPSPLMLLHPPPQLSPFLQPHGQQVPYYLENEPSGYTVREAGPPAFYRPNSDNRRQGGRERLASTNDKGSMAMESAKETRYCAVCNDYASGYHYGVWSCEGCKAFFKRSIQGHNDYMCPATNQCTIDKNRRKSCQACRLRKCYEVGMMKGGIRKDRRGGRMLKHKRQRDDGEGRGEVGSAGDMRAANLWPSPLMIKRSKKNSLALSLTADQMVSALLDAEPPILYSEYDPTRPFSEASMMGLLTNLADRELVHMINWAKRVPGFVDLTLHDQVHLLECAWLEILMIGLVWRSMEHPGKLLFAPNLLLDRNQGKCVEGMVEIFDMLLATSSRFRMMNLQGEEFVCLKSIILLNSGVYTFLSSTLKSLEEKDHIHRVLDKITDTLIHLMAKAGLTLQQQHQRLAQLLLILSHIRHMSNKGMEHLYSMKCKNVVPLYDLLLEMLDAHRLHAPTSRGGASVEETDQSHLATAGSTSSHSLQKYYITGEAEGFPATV
Experiment: Estrogen receptor degradation activity (ERα in cell western assay, MCF7 breast cancer cells)
Format: cell-based
Conditions: for percent ER degradation at 0.3 µM: 4 hours, relative to fulvestrant (0.1 μM) and DMSO; for DC50: concentration which degrades 50% of the estrogen receptor, 4 hours post compound addition, read-out: Degradation IC50
Description: Test: Estrogen Receptor Degradation Activity
Said test involves measuring the in vitro degradation activity of the compounds of the Table 1a.
The measurements of the degradation activities were made using a breast cancer cell ERα in cell western assay as described hereunder.
MCF7 cells (ATCC) were seeded in 384 wells microplate (collagen coated) at a concentration of 10000 cells/30 μL per well in red phenol free MEM alpha medium (invitrogen) containing 5% charcoal dextran striped FBS. The following day, 9 points serial 1:5 dilution of each compound was added to the cells in 2.5 μL at final concentrations ranging from 0.3-0.0000018 μM (in table 2), or 0.1 μM for fulvestrant (using as positive control). At 4 hours post compound addition the cells were fixed by adding 25 μL of formalin (final concentration 5% formalin containing 0.1% triton) for 10 minutes at room temperature and then washed twice with PBS. Then, 50 μL of LI-COR blocking buffer containing 0.1% Triton was added to plate for 30 minutes at room temperature. LI-COR blocking buffer was removed and cells were incubated overnight at cold room with 50 μL anti-ER rabbit monoclonal antibody (Thermo scientific MA1-39540) diluted at 1:1000 in LI-COR blocking buffer containing 0.1% tween-20. Wells which were treated with blocking buffer but no antibody were used as background control. Wells were washed twice with PBS (0.1% tween-20) and incubated at 37° C. for 60 minutes in LI-COR (0.1% tween-20) containing goat anti-rabbit antibody Alexa 488 (1:1000) and Syto-64 a DNA dye (2 μM final concentration). Cells were then washed 3 times in PBS and scanned in ACUMEN explorer (TTP-Labtech). Integrated intensities in the green fluorescence and red fluorescence were measured to determine the levels of ERα and DNA respectively.
The degradation activity with respect to estrogen receptors in this test is given by the concentration which degrades 50% of the estrogen receptor (or IC50) in nM.
The % of ERα levels decrease were determined as follows: % inhibition=100*(1−(sample−fulvestrant: DMSO−fulvestrant)).

Row | percent ER degradation at 0.3 µM | DC50 | Structure (SMILES)
1 | 85% | 3 nM | Cc1cc(F)cc(C)c1C(=O)c1sc2cc(C(=O)O)ccc2c1Oc1ccc(CC2CN(CCCF)C2)cc1 [Compound 3, 2-(4-fluoro-2,6-dimethylbenzoyl)-3-(4-((1-(3-fluoropropyl)azetidin-3-yl)methyl)phenoxy)benzo[b]thiophene-6-carboxylic acid]
2 | 84% | 3 nM | Cc1cc(F)cc(C)c1C(=O)c1sc2cc(C(=O)O)ccc2c1Oc1ccc(N[C@H]2CCN(CCCF)C2)cc1 [Compound 6, (S)-2-(4-fluoro-2,6-dimethylbenzoyl)-3-(4-((1-(3-fluoropropyl)pyrrolidin-3-yl)amino)phenoxy)benzo[b]thiophene-6-carboxylic acid]
3 | 91% | 5 nM | Cc1cc(F)cc(C)c1C(=O)c1sc2cc(C(=O)O)ccc2c1Oc1ccc(NC2CN(CCCF)C2)cc1 [Compound 1, 2-(4-fluoro-2,6-dimethylbenzoyl)-3-(4-((1-(3-fluoropropyl)azetidin-3-yl)amino)phenoxy)benzo[b]thiophene-6-carboxylic acid]
4 | 92% | 5 nM | Cc1cc(F)cc(C)c1C(=O)c1sc2cc(C(=O)O)ccc2c1Oc1ccc(OC2CN(CCCF)C2)cc1 [Compound 2, 2-(4-fluoro-2,6-dimethylbenzoyl)-3-(4-((1-(3-fluoropropyl)azetidin-3-yl)oxy)phenoxy)benzo[b]thiophene-6-carboxylic acid]
5 | 91% | 12 nM | Cc1cc(F)cc(C)c1C(=O)c1sc2cc(C(=O)O)ccc2c1Oc1ccc(O[C@H]2CCN(CCCF)C2)cc1 [Compound 5, (S)-2-(4-fluoro-2,6-dimethylbenzoyl)-3-(4-((1-(3-fluoropropyl)pyrrolidin-3-yl)oxy)phenoxy)benzo[b]thiophene-6-carboxylic acid]
6 | 98% | 0.3 nM | Cc1cc(F)cc(C)c1C(=O)c1sc2cc(C(=O)O)ccc2c1Oc1ccc(C=C2CN(CCCF)C2)cc1 [Compound 4, 2-(4-fluoro-2,6-dimethylbenzoyl)-3-(4-((1-(3-fluoropropyl)azetidin-3-ylidene)methyl)phenoxy)benzo[b]thiophene-6-carboxylic acid]
